Measured values from article PMC7176418 (Science Advances, 2020).

Tests used:
Assay in all cases: biolayer interferometry
Assay type in all cases: binding
Snail [1] = target: Snail (Homo sapiens, UniProt O95863, R174A)
Slug (Snail2) = target: T1, Slug (Snail2) (Homo sapiens, UniProt O43623)
T1 sequence (O43623 1-268): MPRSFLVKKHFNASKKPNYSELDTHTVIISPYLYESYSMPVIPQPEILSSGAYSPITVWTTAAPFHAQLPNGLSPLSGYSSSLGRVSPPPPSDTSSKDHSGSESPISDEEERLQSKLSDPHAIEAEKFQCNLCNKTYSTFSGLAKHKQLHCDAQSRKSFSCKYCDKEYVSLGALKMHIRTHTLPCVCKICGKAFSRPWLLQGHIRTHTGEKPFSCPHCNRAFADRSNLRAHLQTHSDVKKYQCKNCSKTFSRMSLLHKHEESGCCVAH

Snail [2] = target: Snail (Homo sapiens, UniProt O95863)
Sequence of Snail (Homo sapiens, UniProt O95863) (O95863 whole entry): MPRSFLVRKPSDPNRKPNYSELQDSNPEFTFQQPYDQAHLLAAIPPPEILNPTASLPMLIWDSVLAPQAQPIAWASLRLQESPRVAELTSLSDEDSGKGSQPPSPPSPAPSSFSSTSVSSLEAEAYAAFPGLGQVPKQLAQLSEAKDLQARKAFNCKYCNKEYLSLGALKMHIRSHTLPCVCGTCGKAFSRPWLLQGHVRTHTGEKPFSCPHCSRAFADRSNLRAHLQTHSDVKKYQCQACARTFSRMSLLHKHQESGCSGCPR

Sequence of Snail (Homo sapiens, UniProt O95863, R174A) (O95863 whole entry R174A): as the sequence (O95863 whole entry) above, with R174A counted along it

## Cc1cc(Nc2nc(SCc3ccc(C(=O)Nc4ccc(F)cc4N)cc3)nn3cccc23)n[nH]1 [CYD19]
Snail [1]
  Kd: 3000 nM
Slug (Snail2)
  Kd: 600 nM
Snail [2]
  Kd: 180 nM
